Results from ChEMBL document CHEMBL4732108, “Targeting the K11.1 (hERG) channel with allosteric modulators. Synthesis and biological evaluation of three novel series of LUF7346 derivatives” (Eur J Med Chem, 2021).
Calls of active or inactive are those of the source. The calls are words filed in the database; no cut-off is given here.

Assays:
hERG (KCNH2) = hERG (KCNH2) (Homo sapiens, UniProt Q12809); test: Displacement of [3H]dofetilide from human ERG stably expressed in HEK293 cell membranes assessed as residual binding level at 10 uM measured after 60 mins by microbeta liquid scintillation counting method relative to control; set-up: species or system Membrane; conditions: membranes of HEK293 cells stably expressing hERG, probe [3H]dofetilide, read-out: Activity
[1] = system: Stem cell-derived cardiomyocyte; test: Effect on human iPSC-derived cardiomyocytes assessed as prolongation of field potential duration by microarray electrode based assay; assay type: functional, tissue-based
[2] = system: Stem cell-derived cardiomyocyte; test: Effect on human iPSC-derived cardiomyocytes assessed as reduction in beating rate by measuring change in RR interval at higher concentration by microarray electrode based assay; assay type: functional
[3] = system: Stem cell-derived cardiomyocyte; test: Effect on human iPSC-derived cardiomyocytes assessed as reduction in beating rate by measuring change in RR interval at 30 uM by microarray electrode based assay; assay type: functional, tissue-based
[4] = target: T1, Voltage-gated inwardly rectifying potassium channel KCNH2 (Homo sapiens, UniProt Q12809); test: Channel blockade of human ERG stably expressed in HEK293 cells assessed as decrease in current density at 5 uM with -60 mV holding potential measured after 5 mins by whole cell patch clamp method; conditions: hek293, 5 min
[5] = system: Stem cell-derived cardiomyocyte; test: Effect on human iPSC-derived cardiomyocytes assessed as shortening of field potential duration by microarray electrode based assay; assay type: functional, tissue-based
[6] = system: Stem cell-derived cardiomyocyte; test: Effect on human iPSC-derived cardiomyocytes assessed as suppression of dofetilide-induced increase in field potential duration at 10 to 30 uM by microarray electrode based assay; assay type: functional; conditions: dose 10-30 µM
[7] = system: Stem cell-derived cardiomyocyte; test: Effect on dofetilide-induced reduction in RR interval in human iPSC-derived cardiomyocytes at 10 to 30 uM by microarray electrode based assay; assay type: functional; conditions: dose 10-30 µM
[8] = target: T1, Voltage-gated inwardly rectifying potassium channel KCNH2; test: Negative allosteric modulation of human ERG stably expressed in HEK293 cells assessed as increase in current density at 5 uM with -60 mV holding potential measured after 5 mins by whole cell patch clamp method; conditions: hek293, 5 min
[9] = target: T1, Voltage-gated inwardly rectifying potassium channel KCNH2; test: Displacement of [3H]dofetilide from human ERG stably expressed in HEK293 cell membranes assessed as unlabelled dofetilide IC50 at 1 uM measured after 60 mins by microbeta liquid scintillation counting method (reference value: 9.1 to 11.7 nM); set-up: species or system Membrane
[10] = system: Stem cell-derived cardiomyocyte; test: Effect on human iPSC-derived cardiomyocytes assessed as suppression of dofetilide-induced increase in field potential duration by microarray electrode based assay; assay type: functional
[11] = system: Stem cell-derived cardiomyocyte; test: Effect on dofetilide-induced reduction in RR interval in human iPSC-derived cardiomyocytes by microarray electrode based assay; assay type: functional
[12] = target: T1, Voltage-gated inwardly rectifying potassium channel KCNH2; test: Displacement of [3H]dofetilide from human ERG stably expressed in HEK293 cell membranes assessed as unlabelled dofetilide IC50 at 10 uM measured after 60 mins by microbeta liquid scintillation counting method (reference value: 9.1 to 11.7 nM); set-up: species or system Membrane
[13] = system: Stem cell-derived cardiomyocyte; test: Effect on human iPSC-derived cardiomyocytes assessed as change in field potential duration by microarray electrode based assay; assay type: functional
[14] = target: T1, Voltage-gated inwardly rectifying potassium channel KCNH2; test: Displacement of [3H]dofetilide from human ERG stably expressed in HEK293 cell membranes assessed as unlabelled dofetilide IC50 at 3 uM measured after 60 mins by microbeta liquid scintillation counting method (reference value: 9.1 to 11.7 nM); set-up: species or system Membrane

T1 sequence (Q12809 whole entry): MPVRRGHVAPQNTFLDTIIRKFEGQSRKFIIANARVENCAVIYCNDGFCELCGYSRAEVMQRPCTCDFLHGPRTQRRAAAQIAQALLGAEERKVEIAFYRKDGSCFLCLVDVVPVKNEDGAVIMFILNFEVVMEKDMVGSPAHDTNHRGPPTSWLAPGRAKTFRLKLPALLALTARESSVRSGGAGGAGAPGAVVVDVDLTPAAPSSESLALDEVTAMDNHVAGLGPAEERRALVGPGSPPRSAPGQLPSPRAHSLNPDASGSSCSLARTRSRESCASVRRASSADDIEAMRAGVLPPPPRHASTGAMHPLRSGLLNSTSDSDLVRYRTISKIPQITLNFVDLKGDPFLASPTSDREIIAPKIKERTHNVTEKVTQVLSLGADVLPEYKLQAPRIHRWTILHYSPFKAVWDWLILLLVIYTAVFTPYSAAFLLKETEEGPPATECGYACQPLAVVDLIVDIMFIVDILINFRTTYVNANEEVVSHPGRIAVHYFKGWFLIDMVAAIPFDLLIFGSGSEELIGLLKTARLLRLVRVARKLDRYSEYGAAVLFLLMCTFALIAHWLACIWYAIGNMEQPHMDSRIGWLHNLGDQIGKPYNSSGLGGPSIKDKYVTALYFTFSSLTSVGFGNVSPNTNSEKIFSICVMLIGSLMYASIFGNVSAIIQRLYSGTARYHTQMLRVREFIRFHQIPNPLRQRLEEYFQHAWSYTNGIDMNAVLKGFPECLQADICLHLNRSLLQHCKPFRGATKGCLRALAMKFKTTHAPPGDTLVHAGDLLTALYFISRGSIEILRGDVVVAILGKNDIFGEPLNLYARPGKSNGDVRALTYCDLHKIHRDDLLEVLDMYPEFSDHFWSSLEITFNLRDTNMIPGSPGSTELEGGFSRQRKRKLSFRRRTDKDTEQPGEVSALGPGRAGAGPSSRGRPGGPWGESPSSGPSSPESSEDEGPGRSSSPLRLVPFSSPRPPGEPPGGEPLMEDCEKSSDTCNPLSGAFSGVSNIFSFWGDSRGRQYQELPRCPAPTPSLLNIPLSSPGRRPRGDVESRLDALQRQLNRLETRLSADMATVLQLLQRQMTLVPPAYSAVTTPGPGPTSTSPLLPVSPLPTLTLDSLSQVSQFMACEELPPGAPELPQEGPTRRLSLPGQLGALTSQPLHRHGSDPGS
Sequence of hERG (KCNH2) (Q12809 whole entry): as above

| Structure (SMILES) | activity at 1 h, 10 µM (hERG (KCNH2)) | other results |
| --- | --- | --- |
| CNC(=O)c1cccc(NC(=O)COc2ccc(C(=O)c3cc(Cl)ccc3Br)cc2)c1 | 39.8% |  |
| O=C(COc1ccc(C(=O)c2cc(Cl)ccc2Br)cc1)Nc1cc(C(=O)NCC2CC2)ccc1Cl | 89% |  |
| N#Cc1cc(NC(=O)COc2ccc(C(=O)c3cc(Cl)ccc3Br)cc2)ccc1Cl | 86% |  |
| O=C(COc1ccc(C(=O)c2cc(Cl)ccc2Br)cc1)Nc1cncc(C(=O)NCC2CC2)c1 | 2% | Activity [1]: Active; Activity [2]: Active; Activity [3]: Active; Activity [4]: Active |
| Cc1ccc(NC(=O)COc2ccc(C(=O)c3cc(Cl)ccc3Br)cc2)cc1C#N | 87% |  |
| N#Cc1cccc(NC(=O)COc2ccc(C(=O)c3cc(Cl)ccc3Br)cc2)c1F | 21% |  |
| O=C(COc1ccc(C(=O)c2cc(Cl)ccc2Br)cc1)Nc1cc(Cl)cc(C(=O)NCC2CC2)c1 | 36% |  |
| O=C(COc1ccc(C(=O)c2cc(Cl)ccc2Br)cc1)Nc1cccc(C(=O)NCC2CC2)c1 | 36.6% |  |
| COc1ccc(NC(=O)COc2ccc(C(=O)c3cc(Cl)ccc3Br)cc2)cc1C#N | 60% |  |
| O=C(COc1ccc(C(=O)c2ccccc2Br)cc1)Nc1cccnc1 | 29.8% | Activity [5]: Dose-dependent effect; Activity [2]: Active; Activity [6]: Active; Activity [7]: inactive; Activity [8]: Active |
| O=C(COc1ccc(C(=O)c2cc(Cl)ccc2Br)cc1)Nc1ccnc(F)c1 | 56.1% |  |
| N#Cc1cccc(NC(=O)COc2ccc(C(=O)c3cc(Cl)ccc3Br)cc2)c1 | 20% | IC50 [9]: 28.3 nM |
| N#Cc1cc(Cl)cc(NC(=O)COc2ccc(C(=O)c3cc(Cl)ccc3Br)cc2)c1 | 36% |  |
| CC(C)CNC(=O)c1cccc(NC(=O)COc2ccc(C(=O)c3cc(Cl)ccc3Br)cc2)c1 | 46% |  |
| Cc1cc(NC(=O)COc2ccc(C(=O)c3cc(Cl)ccc3Br)cc2)ccn1 | 9% | Activity [1]: Active; Activity [2]: inactive; Activity [10]: inactive; Activity [11]: inactive; Activity [4]: Active |
| COc1ccc(C#N)cc1NC(=O)COc1ccc(C(=O)c2cc(Cl)ccc2Br)cc1 | 28% |  |
| O=C(COc1ccc(C(=O)c2cc(Cl)ccc2Br)cc1)Nc1ccc(Cl)c(C(=O)NCC2CC2)c1 | 20% |  |
| O=C(COc1ccc(C(=O)c2cc(Cl)ccc2Br)cc1)Nc1ccncc1 | 26.1% | IC50 [12]: 43.7 nM |
| N#Cc1cc(NC(=O)COc2ccc(C(=O)c3cc(Cl)ccc3Br)cc2)ccc1F | 22.7% |  |
| O=C(COc1ccc(C(=O)c2cc(Cl)ccc2Br)cc1)Nc1ccnc(Cl)c1 | 52% |  |
| N#Cc1ccc(Cl)c(NC(=O)COc2ccc(C(=O)c3cc(Cl)ccc3Br)cc2)c1 | 44% |  |
| N#Cc1cncc(NC(=O)COc2ccc(C(=O)c3cc(Cl)ccc3Br)cc2)c1 |  | Activity [13]: inactive; Activity [2]: Active; Activity [10]: inactive; Activity [11]: inactive |
| O=C(COc1ccc(C(=O)c2cc(Cl)ccc2Br)cc1)Nc1cccc(C(=O)NC2CC2)c1 | 27% |  |
| Cc1cnccc1NC(=O)COc1ccc(C(=O)c2cc(Cl)ccc2Br)cc1 | 15% | IC50 [14]: 14.1 nM |
| O=C(COc1ccc(C(=O)c2cc(Cl)ccc2Br)cc1)Nc1cccnc1 | 28.2% |  |
| COc1cc(NC(=O)COc2ccc(C(=O)c3cc(Cl)ccc3Br)cc2)ccn1 | 90% |  |
| O=C(COc1ccc(C(=O)c2cc(Cl)ccc2Br)cc1)Nc1ccnc(C(=O)NCC2CC2)c1 | 53% |  |
| O=C(COc1ccc(C(=O)c2cc(Cl)ccc2Br)cc1)Nc1cccc(C(=O)NCC2CCC2)c1 | 38% |  |
| O=C(COc1ccc(C(=O)c2cc(Cl)ccc2Br)cc1)Nc1cccc(C(=O)NCC2CC2)c1Cl | -2% |  |
